The text below walks through data of US20090298055A1, “PRODUCTION OF PROTEINS” (Applied Research Systems ARS Holding S.A., priority 2004, published 2009).

The term IC50 denotes the midpoint of a concentration-inhibition curve.

“Also recorded” adds a separate entry of the source. Bounds are passed on as bounds.

What all share (assay type): cell-based, Chinese hamster
Test [1] deals with CHO-S cells. Kind of test: F-MTX staining and competition with antifolates (flow cytometry). The note with it: 2 μM F-MTX, 3 hours competition. The procedure:
(§1) F-MTX staining and competition with hydrophilic and lipophilic antifolates—Cells were seeded in 60-mm Petri dish and incubated for 8 hours at 37° C. in growth medium containing 2 μM fluorescein-MTX (F-MTX). Cells were then washed with PBS and subjected to competition with MTX and its lipophilic analogue TMQ. Following 3 hours of incubation, cells were detached by trypsinization, suspended in PBS containing 1% fetal calf serum and the residual green fluorescence per cell was determined using a flow cytometer (FACSCalibur, Becton-Dickinson) at an excitation of 488 nm and emission of 525 nm. Autofluorescence of unstained cells was routinely recorded.
A general note: Flow cytometry measures light scatter and fluorescence of single cells or particles in a stream.

A further test has as its system CHO-S R0.15 cells. The description is as above. To be noted: for concentration for complete displacement of F-MTX: 2 μM F-MTX, 3 hours competition. The procedure:
as §1

The subject of test [2] is CHO-S cells. In words: Cell growth inhibition by antifolates (trypan blue exclusion, 3 days). The note with it: Cricetulus griseus, 72 h, read-out: 50% inhibition of cell growth (IC50). How it is done: (§2) Cell growth inhibition by antifolates—For antifolate cell growth inhibition, cells (10^4/well) were seeded in 24-well plates in the respective growth medium (AA8 and derivatives in RPMI+10% FCS, and CHO-S cells in CD-CHO) containing various concentrations of MTX or the lipophilic antifolates, trimeterxate (Dr. David Fry, Warner-Lambert, Parke-Davis, Detroit, Mich.) and incubated for 3 days at 37° C. Thereafter, cells were detached by trypsinization and the number of viable cells was determined using trypan blue exclusion. The 50% inhibitory concentration (IC50) is defined as the drug concentration at which cell growth is inhibited by 50% relative to untreated controls.

Test [3] concerns CHO-S R0.15 cells (RFC deficient). The test is described as above. How it is done: as §2
In test [4] the test system is MTX-resistant CHO AA8 C4R0.15 and C5R0.15 cells. In words: Cell growth inhibition by lipophilic antifolates. To be noted: data not shown. How it is done:
as §2

In test [5] the test system is CHO AA8 cells. In words: Cell growth inhibition by lipophilic antifolates. The note with it: Cricetulus griseus; printed after 'CHO AA8 counterpart', data not shown. How it is done:
as §2

For test [6], the system named is CHO AA8 cells. Kind of test: F-MTX staining and competition with antifolates (flow cytometry). The procedure:
as §1

Test [7] has as its system CHO AA8 C4R0.15 and CHO AA8 C5R0.15 cells. The description is as above. To be noted: CHO AA8 C4R0.15 and C5R0.15 cells. How it is done:
as §1

Test [8] has as its system CHO-S-R0.12 cells (selected in 120 nM MTX). In words: [3H]-MTX transport assay. To be noted: 2 μM [3H]-MTX, 3 minutes. The procedure: (§3) [^3H]-MTX transport—In order to determine the ability of the antifolate-resistant clones to take up antifolates the influx rates of [^3H]-MTX were measured and compared to the control CHO AA8 cells. Cells (2×10^7) from the mid-log phase of growth were washed three times in transport buffer consisting of HEPES-buffered saline solution (HBSS, Rothem et al., 2002) and incubated for 3 minutes at 37° C. in the presence of HBSS (1 ml suspensions) containing 2 μM [^3H]-MTX. Transport controls contained a 500-fold excess (1 mM) of unlabeled MTX. The transport of [^3H]-MTX was stopped by the addition of 10 ml of ice-cold HBSS. The cell suspension was then centrifuged for 5 minutes at 4° C. using a centrifugation speed of 500×g, following which the cell pellet was washed twice with 10 ml of ice-cold transport buffer. The final cell pellet was suspended in water and processed for scintillation counting.

Test [9] deals with CHO-S-R0.04 cells (selected in 40 nM MTX). Kind of test: [3H]-MTX transport assay. The note with it: 2 μM [3H]-MTX, 3 minutes. How it is done: as §3
The test system of test [10] is CHO AA8 C4 R0.15 and C5 R0.15 cell lines. In words: [3H]-MTX transport assay. The note with it: 2 μM [3H]-MTX, 3 minutes. The procedure: as §3
Test [11] relates to hRFC and hRFC-HA CHO AA8 C5R0.15 transfectants. Kind of test: MTX growth inhibition assay. The procedure: as §2
(§4) Cell growth assays and inhibition by antifolates—as described in Example 2, hereinabove.

Test [12] deals with parental CHO AA8 C5 cells (RFC deficient). Kind of test: MTX growth inhibition assay. The note with it: Cricetulus griseus, 72 h, 3 days. The procedure: as §2, §4

In the case of `COc1cc(NCc2ccc3nc(N)nc(N)c3c2C)cc(OC)c1OC` [TMQ, Trimetrexate], the “concentration resulting in complete loss of F-MTX fluorescence” value in the test on CHO-S cells [1] is listed as 10 nM. Moreover, the “concentration for complete displacement of F-MTX” value with CHO-S R0.15 cells turned out to be 10 nM. Also, the IC50 is about 40 nM in the test on CHO-S cells [2]; 10 nM in test [3] (Cricetulus griseus, 72 h, CHO-S R0.15 cells, read-out: 50% inhibition of cell growth (IC50)); about 6 nM in the test on CHO AA8 cells [5]. In addition, the “hypersensitivity of CHO-SR0.15 cells as compared with parental CHO cells” value in test [3] (ratio of 50% inhibitory concentrations) was 8 fold. In [4], the “hypersensitivity compared to CHO AA8 counterpart” value was over 5 fold.
For the molecule `COc1ccc(OC)c(Cc2cnc3nc(N)nc(N)c3c2C)c1` [PTX, piritrexim], in test [4], the “hypersensitivity compared to CHO AA8 counterpart” value was over 3 fold. For the same molecule, in the test on CHO AA8 cells [5], the IC50 is about 8 nM.
On to `CN(Cc1cnc2nc(N)nc(N)c2n1)c1ccc(C(=O)N[C@@H](CCC(=O)O)C(=O)O)cc1` [MTX, methotrexate], for which the concentration at which cells completely lost their F-MTX staining in the test on CHO-S cells [1] worked out at 100 nM. The “concentration resulting in complete loss of F-MTX fluorescence” value in the test on CHO AA8 cells [6] worked out at 30 nM. Also, the “concentration required to completely displace F-MTX fluorescence” value in test [7] was 3 µM. Moreover, the “concentration for complete displacement of F-MTX” value with CHO-S R0.15 cells is given as 1000 nM. Besides, the “loss of cellular F-MTX staining” value in the test with CHO-S R0.15 cells (competition with 100 nM MTX) is reported as “did not result in any loss; also recorded: Retention of F-MTX fluorescence”. In addition, the results for the “loss of control CHO-S transport activity” value in test [8] and in test [9] were 96.4% and 92.5%, respectively. Besides, in test [10], the “loss of MTX uptake relative to control AA8 cells” value was 90-91%. The IC50 in test [11] (Cricetulus griseus, CHO-AA8, 72 h, hRFC and hRFC-HA transfectants, 3 days) is 27 to 29 nM; in [12], about 3000 nM. Further, the “increase in MTX sensitivity” value in [11] (RFC and RFC-HA transfectants vs C5R0.15 cells) came out at 100 fold.
